Assay results as given in patent US7662832B2, “Pyrrolo[2,3-c]pyridine derivatives and processes for the preparation thereof” (priority 2004, dated 2010).
Counter-ions that a name gives are not always drawn.

The compounds below were run against Proton Pump (H^+/K^+-ATPase) (Sus scrofa, UniProt P19156) (assay: Inhibitory effects on proton pump (H^+/K^+-ATPase) activity). Details: hog gastric vesicles; K^+ stimulated H^+/K^+-ATPase activity; 30 minutes at 37° C.
Assay type: biochemical

Chain of Proton Pump (H^+/K^+-ATPase) (P19156 2-1034 limits assumed): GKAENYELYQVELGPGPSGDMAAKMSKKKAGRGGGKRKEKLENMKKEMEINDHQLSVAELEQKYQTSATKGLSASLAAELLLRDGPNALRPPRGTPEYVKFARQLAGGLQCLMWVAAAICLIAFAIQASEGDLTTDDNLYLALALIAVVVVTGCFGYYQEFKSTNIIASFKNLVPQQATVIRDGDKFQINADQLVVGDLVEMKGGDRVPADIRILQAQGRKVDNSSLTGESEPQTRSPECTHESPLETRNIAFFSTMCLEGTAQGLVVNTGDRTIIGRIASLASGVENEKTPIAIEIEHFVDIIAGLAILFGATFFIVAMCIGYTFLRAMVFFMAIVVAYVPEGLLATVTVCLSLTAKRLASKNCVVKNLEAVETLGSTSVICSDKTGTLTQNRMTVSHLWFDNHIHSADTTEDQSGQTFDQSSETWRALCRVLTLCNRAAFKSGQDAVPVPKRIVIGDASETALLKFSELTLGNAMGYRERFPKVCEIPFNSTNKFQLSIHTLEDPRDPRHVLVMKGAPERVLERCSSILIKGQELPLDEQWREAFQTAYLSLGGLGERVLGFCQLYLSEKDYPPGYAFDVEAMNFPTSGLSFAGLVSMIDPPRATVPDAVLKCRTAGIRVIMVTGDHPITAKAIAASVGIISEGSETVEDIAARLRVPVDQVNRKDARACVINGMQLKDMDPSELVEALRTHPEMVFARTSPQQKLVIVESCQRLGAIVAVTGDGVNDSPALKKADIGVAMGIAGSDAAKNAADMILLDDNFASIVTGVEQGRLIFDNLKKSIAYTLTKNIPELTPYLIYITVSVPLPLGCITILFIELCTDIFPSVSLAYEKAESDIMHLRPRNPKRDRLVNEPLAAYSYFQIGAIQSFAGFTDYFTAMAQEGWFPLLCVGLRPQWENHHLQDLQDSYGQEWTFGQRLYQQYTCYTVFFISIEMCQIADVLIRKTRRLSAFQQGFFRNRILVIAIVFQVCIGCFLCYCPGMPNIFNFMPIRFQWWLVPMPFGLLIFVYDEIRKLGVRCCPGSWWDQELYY
Chain of Proton Pump (H^+/K^+-ATPase) (P18434 whole entry partner): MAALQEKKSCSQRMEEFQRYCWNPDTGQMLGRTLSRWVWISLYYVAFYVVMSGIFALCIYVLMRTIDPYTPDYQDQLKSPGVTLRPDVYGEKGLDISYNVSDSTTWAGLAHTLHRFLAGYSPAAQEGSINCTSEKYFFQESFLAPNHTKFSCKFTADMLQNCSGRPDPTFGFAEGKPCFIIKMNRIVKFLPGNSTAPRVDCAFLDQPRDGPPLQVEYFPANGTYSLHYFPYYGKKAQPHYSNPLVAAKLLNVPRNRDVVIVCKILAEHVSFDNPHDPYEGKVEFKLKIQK

SMILES | IC50
COc1cccc(Cn2c(C)c(C)c3ccnc(-c4ccc(SC)cc4)c32)c1 [Example 266, 1-(3-methoxybenzyl)-2,3-dimethyl-7-(4-methylsulfanylphenyl)-1H-pyrrolo[2,3-c]pyridine hydrochloride] | 140 nM
CSc1ccc(-c2nccc3c(C)c(C)n(Cc4ccc(C)cc4)c23)cc1 [Example 267, 2,3-dimethyl-1-(4-methylbenzyl)-7-(4-methylsulfanylphenyl)-1H-pyrrolo[2,3-c]pyridine hydrochloride] | 110 nM
CSc1ccc(-c2nccc3c(C)c(C)n(CC4CC4)c23)cc1 [Example 270, 1-cyclopropylmethyl-2,3-dimethyl-7-(4-methylsulfanylphenyl)-1H-pyrrolo[2,3-c]pyridine hydrochloride] | 450 nM
CSc1ccc(-c2nccc3c(C)c(C)n(Cc4cccc(F)c4)c23)cc1 [Example 272, 2,3-dimethyl-1-(3-fluorobenzyl)-7-(4-methylsulfanylphenyl)-1H-pyrrolo[2,3-c]pyridine hydrochloride] | 220 nM
CSc1ccc(-c2nccc3c(C)c(C)n(Cc4ccc(F)cc4)c23)cc1 [Example 274, 2,3-dimethyl-1-(4-fluorobenzyl)-7-(4-methylsulfanylphenyl)-1H-pyrrolo[2,3-c]pyridine hydrochloride] | 420 nM
CSc1ccc(-c2nccc3c(C)c(C)n(Cc4ccccc4F)c23)cc1 [Example 275, 2,3-dimethyl-1-(2-fluorobenzyl)-7-(4-methylsulfanylphenyl)-1H-pyrrolo[2,3-c]pyridine hydrochloride] | 360 nM
C=CCn1c(C)c(C)c2ccnc(-c3ccc(C)cc3)c21 [Example 277, 1-allyl-2,3-dimethyl-7-(p-tolyl)-1H-pyrrolo[2,3-c]pyridine hydrochloride] | 129 nM
Cc1ccc(-c2nccc3c(C)c(C)n(Cc4ccccc4)c23)cc1 [Example 281, 1-benzyl-2,3-dimethyl-7-(p-tolyl)-1H-pyrrolo[2,3-c]pyridine hydrochloride] | 292 nM
Cc1ccc(-c2nccc3c(C)c(C)n(Cc4ccc(Cl)cc4)c23)cc1 [Example 283, 1-(4-chlorobenzyl)-2,3-dimethyl-7-(p-tolyl)-1H-pyrrolo[2,3-c]pyridine hydrochloride] | 1740 nM
Cc1ccc(-c2nccc3c(C)c(C)n(CC4CCC4)c23)cc1 [Example 289, 1-cyclobutylmethyl-2,3-dimethyl-7-(p-tolyl)-1H-pyrrolo[2,3-c]pyridine hydrochloride] | 1340 nM
Cc1ccc(-c2nccc3c(C)c(C)n(Cc4ccc(Cl)c(Cl)c4)c23)cc1 [Example 296, 1-(3,4-dichlorobenzyl)-2,3-dimethyl-7-(p-tolyl)-1H-pyrrolo[2,3-c]pyridine hydrochloride] | 5080 nM

The remaining compounds from weak to strong by IC50, led by results:

IC50 | SMILES
390 nM | COc1cccc(Cn2c(C)c(C)c3ccnc(-c4ccc(C)cc4)c32)c1 [Example 278, 1-(3-methoxybenzyl)-2,3-dimethyl-7-(p-tolyl)-1H-pyrrolo[2,3-c]pyridine hydrochloride]
345 nM | C#CCn1c(C)c(C)c2ccnc(-c3ccc(C)cc3)c21 [Example 280, 2,3-dimethyl-1-(prop-2-ynyl)-7-(p-tolyl)-1H-pyrrolo[2,3-c]pyridine hydrochloride]
267 nM | Cc1ccc(-c2nccc3c(C)c(C)n(Cc4cccc(F)c4)c23)cc1 [Example 284, 2,3-dimethyl-1-(3-fluorobenzyl)-7-(p-tolyl)-1H-pyrrolo[2,3-c]pyridine hydrochloride]
231 nM | Cc1ccc(Cn2c(C)c(C)c3ccnc(-c4ccc(C)cc4)c32)cc1 [Example 279, 2,3-dimethyl-1-(4-methylbenzyl)-7-(p-tolyl)-1H-pyrrolo[2,3-c]pyridine hydrochloride]
130 nM | CSc1ccc(-c2nccc3c(C)c(C)n(Cc4ccccc4)c23)cc1 [Example 268, 1-benzyl-2,3-dimethyl-7-(4-methylsulfanylphenyl)-1H-pyrrolo[2,3-c]pyridine hydrochloride]
